Active and inactive are the calls of the source. How the calls were made is not given here.
Assay: Luciferase light induction in v cholerae bh1651, agonist dose response, confirmatory (AID 624254)
Conditions: V. cholerae BH1651 luxOD47E, luciferase light induction, 6 h; at 50 µM (top of the series)

SMILES | activation (light increase)
Cc1ccc(/C=C/C(=O)OCC(=O)NCCc2ccc(S(N)(=O)=O)cc2)o1 | inactive
CCOC(=O)C1(CCOc2ccccc2)CCN(Cc2cc(OC)cc(OC)c2)CC1 | inactive
COc1cc(S(=O)(=O)N(Cc2cccs2)C2CC2)ccc1-n1cnnn1 | inactive
COC(=O)c1c(-c2ccc(Br)cc2)noc1N | inactive
Cn1c(CCNC(=O)c2ccco2)nc2cc(NC(=O)NC3CCCCC3)ccc21 | inactive
Cc1ccccc1NS(=O)(=O)c1cn(C)cn1 | inactive
CCc1ccc(C(=O)OCC(=O)NC2CCCC2)cc1 | inactive
CCOC(=O)CC1C(=O)NCCN1C(=O)c1cccc(C(F)(F)F)c1 (centres undefined) | inactive
O=C(CN1C(=O)CSC1=O)NC1CCCCC1 | inactive
CCCCOCC(O)CN1CCN(C(C)=O)CC1 (centres undefined) | inactive
CCN(CC(=O)Nc1c(F)cccc1F)C(=O)c1ccc(C)c(S(=O)(=O)N2CCCCC2)c1 | inactive
Cc1ccc(OCCNC(=O)c2ccco2)cc1C | inactive
CCc1nnc(NC(=O)C2CC(=O)N(c3ccc(C)cc3)C2)s1 (centres undefined) | inactive
CC(C)CCN1CC(C(=O)N2CCN(c3ccc(F)cc3)CC2)CC1=O (centres undefined) | inactive
COc1ccc(C(=O)COC(=O)CNC(=O)c2ccc(Cl)cc2Cl)c(OC)c1 | inactive
O=C(/C=C/c1ccc(OCCCF)cc1)NCc1ccc(Cl)cc1 | inactive
Cc1ccc(C(=O)COc2cc(C)nc3nncn23)cc1 | inactive
O=C(Oc1nsnc1N1CCCCC1)N1CCOCC1 | inactive
O=C(COC(=O)C1CCN(c2ccc(C(F)(F)F)cn2)CC1)NC1CCCCC1 | inactive
O=S(=O)(Nc1cccc(S(=O)(=O)N2CCCCC2)c1)c1ccccc1F | inactive
COc1ccc(Cc2nn[nH]n2)cc1 | inactive
CCC(O)(CCN1CCCCC1)c1ccccc1 (centres undefined) | inactive
CCOc1ccc(S(=O)(=O)N(CCO)CCO)cc1-c1nc2c(C(C)(C)C)nn(C)c2c(=O)[nH]1 | inactive
Cc1ccc(S(=O)(=O)N(C)c2ccc(OCC(=O)N3CCCCC3)cc2)cc1 | inactive
CCCCNC(=O)Nc1cc(C)on1 | inactive

SMILES | activation (light increase)
CC(=O)c1ccc(Oc2cc(C)nc(NCc3ccccc3)n2)cc1 | inactive
COc1ccc(S(=O)(=O)Nc2cccc(S(=O)(=O)N3CCCC3)c2)cc1OC | inactive
Cn1c(=O)oc2cc(S(=O)(=O)N3CCN(c4ccc(F)cc4)CC3)ccc21 | inactive
CCCOc1ccc(-c2nc(C#N)c(N3CCN(CC)CC3)o2)cc1 | inactive
Cc1cccc(C(=O)NCC(c2cccs2)N2CCOCC2)c1 (centres undefined) | inactive
CCn1nnnc1SCC(=O)c1ccc2c(c1)OCCO2 | inactive
Cc1ccc(S(=O)(=O)Nc2ccccc2F)cc1C(=O)NCCCN1CCCC1=O | inactive
CCOCCCNC(=O)C(NC(=O)CNC(=O)c1ccccc1)c1ccccc1 (centres undefined) | inactive
Cc1ccc(C(=O)OCC(=O)NC2CCCC2)cc1 | inactive
Cc1ccc(C)n1-c1sc2c(c1C#N)CCC(C)C2 (centres undefined) | inactive
CCC(C)NC(=O)Cc1ccc(-c2ccccc2)cc1 (centres undefined) | inactive
CCCCN(C)CCNC(=O)c1ccc2c(c1)NC(=O)C(N1CCCCC1)S2 (centres undefined) | inactive
O=c1[nH]c2ccccc2n1Cc1ccc(Cl)cc1 | inactive
Cc1cccc(N(CC(N)=O)C2SC(=O)N(c3ccccc3)C2=O)c1 (centres undefined) | inactive
O=[N+]([O-])c1ccc(NCCN2CCOCC2)c([N+](=O)[O-])c1 | inactive
Cc1ccc(C(=O)OCC(=O)Nc2ccccc2)cc1NC(=O)c1ccco1 | inactive
Cc1ccc(OCCC(=O)OCC(=O)Nc2ccc3c(c2)OCO3)cc1 | inactive
CC(C)CC(=O)N1CCN(Cc2ccccc2Br)CC1 | inactive
COc1ccc2[nH]c(=O)c(CNc3ccc(C)c(C)c3)cc2c1 | inactive
O=C(CNC(=O)c1ccncc1)Nc1ccc(F)c(F)c1 | inactive
O=C(COC(=O)c1ccc(Br)cc1)NC1CCCC1 | inactive
CCc1cc(C(=O)N2CCN(C(=O)c3ccccc3)CC2)sc1C | inactive
CCOC(=O)N1CCC(NC(=O)C2CCN(C(=O)N3CC(C)Oc4ccc(C)cc43)CC2)CC1 (centres undefined) | inactive
Cc1cccc(NS(=O)(=O)c2ccc(Oc3ccccc3)cc2)n1 | inactive
COC(=O)c1ccc(CSc2nnc3c(Cl)cc(Cl)cn23)o1 | inactive

SMILES | activation (light increase)
COc1ccccc1CNC(=O)COC(=O)c1n[nH]c2ccccc12 | inactive
CN(Cc1nc2ccccc2n1C)C(=O)c1ccco1 | inactive
O=C(CN1CCC(O)(c2cccc(C(F)(F)F)c2)CC1)NCCc1ccccc1 | inactive
CC(C)NC(=O)c1cnc(Sc2ncc(C(F)(F)F)cc2Cl)n1C | inactive
COc1ccc(Cl)cc1NC(=O)CN1CCc2ccccc2C1 | inactive
CCOC(=O)C1CCCc2c1[nH]c1c(C(=O)O)cccc21 (centres undefined) | inactive
CCC(CCC(=O)Nc1cccc(C(=O)O)c1)C(=O)O (centres undefined) | inactive
COc1ccc(C(=O)COC(=O)c2cccc(-n3cnnn3)c2)c(OC)c1 | inactive
C=Cn1c(C(=O)O)ccc1-c1ccc(Cl)cc1 | inactive
Cn1c(=O)c2c(nc(SCCN3CCOCC3)n2Cc2cccc3ccccc23)n(C)c1=O | inactive
Cc1cnc(C(=O)OCC(=O)NC(=O)NC(C)C)cn1 | inactive
CC1(NC(=O)C23CC4CC(CC(C4)C2)C3)CCS(=O)(=O)C1 (centres undefined) | inactive
COc1ccc(S(=O)(=O)N2CCSC2c2ccc(N)cc2)cc1 (centres undefined) | inactive
O=C(NCc1ccccc1F)C(=O)NCC1CCCN1S(=O)(=O)c1ccccc1 (centres undefined) | inactive
CC1(C(=O)N2CCN(c3ccc([N+](=O)[O-])cc3)CC2)CC1(Cl)Cl (centres undefined) | inactive
COC(=O)C1CCN(C(=O)CN(C)Cc2ccc(C(C)(C)C)cc2)CC1 | inactive
Cc1[nH]c2ccc3c(ncn3CCC#N)c2c1C | inactive
O=C(Oc1ccc(=O)n(-c2ccccc2)n1)c1cccc(Cl)c1 | inactive
COc1ccccc1NC(=O)CN1CCN(C(=O)C2CCCO2)CC1 (centres undefined) | inactive
COc1cc(C(C)=O)ccc1OCC(=O)Nc1cc(Cl)ccc1-n1cncn1 | inactive
CCOC(=O)c1nnn(-c2nonc2N)c1CN1CCc2ccccc2C1 | inactive
COC(=O)c1cc(COC(=O)c2ccc(OC)c(S(=O)(=O)N3CCCC3)c2)oc1C | inactive
O=C(CCc1nc(-c2ccccc2)no1)N1CCCC1 | inactive
COc1ccc(S(=O)(=O)Nc2ccc(S(=O)(=O)N3CCOCC3)cc2)cc1C | inactive
CCn1nnnc1NCc1ccc(N2CCCC2)cc1 | inactive

SMILES | activation (light increase)
CN1CC(=O)N(CC(=O)Nc2ccc3c(c2)CCC3)C1=O | inactive
C[C@@H]1CN([C@H](C)CO)C(=O)c2cccc(NC(=O)Nc3ccc4c(c3)OCO4)c2O[C@H]1CN(C)S(=O)(=O)c1ccccc1 | inactive
CCNC(=O)OCc1cn(-c2ccccc2)nn1 | inactive
O=C(CNc1cc(S(=O)(=O)N2CCOCC2)ccc1N1CCCC1)Nc1ccc(Cl)cc1 | inactive
CCOc1ccc(CNC(=O)Cn2c(=O)c3cccn3c3ccccc32)cc1 | inactive
Cc1ccc(S(=O)(=O)N(C)c2nonc2C)cc1 | inactive
CC(C)[C@H](NC(=O)c1ccccc1F)C(=O)OCC(=O)NC1CC1 | inactive
C[C@@H]1CN([C@H](C)CO)C(=O)c2cccc(NC(=O)Nc3ccc4c(c3)OCO4)c2O[C@@H]1CN(C)S(=O)(=O)c1ccccc1 | inactive
Brc1ccc(C2=Nn3c(nnc3-c3n[nH]c4c3CCC4)SC2)cc1 | inactive
Cc1cc(C(=O)OCC(=O)Nc2ccccc2F)c(C)o1 | inactive
COc1ccc(Cl)cc1NC(=O)CN(C)C(=O)CNC(=O)C12CC3CC(CC(C3)C1)C2 | inactive
CC(=O)Nc1ccc2nc(-c3cccnc3)[nH]c2c1 | inactive
FC(F)Oc1ccccc1NC(=S)NCc1ccco1 | inactive
Cc1cc(C)n2cc(COc3ccc4ccccc4c3)nc2n1 | inactive
Cc1ccc(Oc2nccc(-c3ccc(Cl)cc3)n2)cc1 | inactive
O=C(c1cc2cc(Cl)ccc2oc1=O)N1CCCC1 | inactive
CCCc1ccc2oc(C(=O)N(Cc3ccncc3)CC3CCCO3)c(C)c2c1 (centres undefined) | inactive
COc1ccc(NC(=O)C(=O)NCC2CCCN2S(=O)(=O)c2ccc(C)cc2)cc1 (centres undefined) | inactive
C[C@H](CO)N1C[C@H](C)[C@@H](CN(C)S(=O)(=O)c2cccs2)Oc2c(NC(=O)C3CC3)cccc2C1=O | inactive
Cc1cccc(C(=O)OCC(=O)NCC(C)C)c1O | inactive
CCCCNC(=O)COC(=O)c1ccc(N(C)C)cc1 | inactive
Cc1nnc2c3ccccc3c(-c3ccc(O)cc3)nn12 | inactive
CCCC(=O)NC1CCCc2c1cnn2-c1ccc(C)c(C)c1 (centres undefined) | inactive
Cc1cc(Cl)ccc1OCC(=O)OCC(=O)NC1CCS(=O)(=O)C1 (centres undefined) | inactive

— PubChem BioAssay AID624254 (Broad Institute, 2012)
